Results reported in patent US7138361B2, “Herbicidal heterocycles” (E. I. du Pont de Nemours and Company, priority 2000, dated 2006).

Key:
Type in all cases: in vivo
[1] = system: barnyardgrass (Echinochloa crus-galli); experiment: Test B flooded paddy test; conditions: Rate 1000 g/ha, scale of 0 to 100 where 0 is no effect and 100 is complete control, visually evaluated after 13 to 15 days
Procedure, shortened: (§1)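 Plants were grown to the 2-leaf stage in flooded paddy conditions before treatment with the formulated test chemicals. After 13 to 15 days in a greenhouse, each species was visually compared with untreated controls and rated from 0 (no effect) to 100 (complete control).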

[2] = system: duck salad (Heteranthera limosa); experiment: Test B flooded paddy test; conditions: Rate 1000 g/ha, scale of 0 to 100 where 0 is no effect and 100 is complete control, visually evaluated after 13 to 15 days
Procedure, shortened: as §1

rice (Oryza saliva) = experiment: Test B flooded paddy test; conditions: Rate 1000 g/ha, scale of 0 to 100 where 0 is no effect and 100 is complete control, visually evaluated after 13 to 15 days
Procedure, shortened: as §1

[3] = system: smallflower flatsedge (Cyperus difformis); experiment: Test B flooded paddy test; conditions: Rate 1000 g/ha, scale of 0 to 100 where 0 is no effect and 100 is complete control, visually evaluated after 13 to 15 days
Procedure, shortened: as §1

[4] = system: Italian ryegrass (Lolium multiflorum); experiment: Test C postemergence
Procedure, shortened: (§2)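 Test chemicals, formulated in a non-phytotoxic solvent mixture with surfactant, were applied preemergence to planted seeds or postemergence to plants 2 to 18 cm tall (1- to 4-leaf stage). After 12 to 14 days in a greenhouse, injury was visually rated against untreated controls on a 0–100 scale.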

[5] = system: blackgrass (Alopecurus myosuroides); experiment: Test C postemergence
Procedure, shortened: as §2

[6] = system: canary grass (Phalaris minor); experiment: Test C postemergence
Procedure, shortened: as §2

[7] = system: downy brome (Bromus tectorum); experiment: Test C postemergence
Procedure, shortened: as §2

[8] = system: green foxtail (Setaria viridis); experiment: Test C postemergence
Procedure, shortened: as §2

[9] = system: wheat (Triticum aestivum); experiment: Test C postemergence
Procedure, shortened: as §2

wild oat (Avena fatua) = experiment: Test C postemergence
Procedure, shortened: as §2

[10] = system: windgrass (Apera spica-venti); experiment: Test C postemergence
Procedure, shortened: as §2

[11] = system: winter barley (Hordeum vulgare); experiment: Test C postemergence
Procedure, shortened: as §2

[12] = Rate 250 g/ha, scale 0 to 100 (0 no effect, 100 complete control)
[13] = Rate 500 g/ha, scale 0 to 100 (0 no effect, 100 complete control)
[14] = Rate 125 g/ha, scale 0 to 100, 0 no effect, 100 complete control

CC(C)(C)c1ccn(C2CCN(c3cccc(C(F)(F)F)c3)C2=S)n1 (stereo not shown) [Compound 22]
Plant response rating, Barnyardgrass [1]: 100 | Plant response rating, Ducksalad [2]: 100 | Plant response rating, Rice (rice (Oryza saliva)): 90 | Plant response rating, Flatsedge [3]: 100

COc1cc(N2CCC(n3ccc(C(C)(C)C)n3)C2=O)ccc1Cl (stereo not shown) [Compound 117]
Plant response rating, Ryegrass ([4]; Rate 62 g/ha, scale 0 to 100): 10 | Plant response rating, Ryegrass [4, 12]: 30 | Plant response rating, Ryegrass [4, 13]: 60 | Plant response rating, Blackgrass ([5]; Rate 62 g/ha, scale 0 to 100): 0 | Plant response rating, Blackgrass [5, 14]: 0 | Plant response rating, Blackgrass [5, 12]: 20 | Plant response rating, Blackgrass [5, 13]: 40 | Plant response rating, Canarygrass ([6]; Rate 62 g/ha, scale 0 to 100): 0 | Plant response rating, Canarygrass [6, 14]: 0 | Plant response rating, Canarygrass [6, 12]: 20 | Plant response rating, Canarygrass [6, 13]: 20 | Plant response rating, Downy Brome ([7]; Rate 62 g/ha, scale 0 to 100): 20 | Plant response rating, Downy Brome [7, 14]: 40 | Plant response rating, Downy Brome [7, 13]: 40 | Plant response rating, Foxtail, Green ([8]; Rate 62 g/ha, scale 0 to 100): 10 | Plant response rating, Foxtail, Green [8, 12]: 30 | Plant response rating, Foxtail, Green [8, 13]: 50 | Plant response rating, Wheat ([9]; Rate 62 g/ha, scale 0 to 100): 10 | Plant response rating, Wheat [9, 12]: 10 | Plant response rating, Wheat [9, 13]: 20 | Plant response rating, Wild Oat (wild oat (Avena fatua); Rate 62 g/ha, scale 0 to 100): 30 | Plant response rating, Wild Oat (wild oat (Avena fatua); [12]): 30 | Plant response rating, Wild Oat (wild oat (Avena fatua); [13]): 30 | Plant response rating, Windgrass ([10]; Rate 62 g/ha, scale 0 to 100): 20 | Plant response rating, Windgrass [10, 12]: 40 | Plant response rating, Windgrass [10, 13]: 60 | Plant response rating, Barley, Winter ([11]; Rate 62 g/ha, scale 0 to 100): 0 | Plant response rating, Barley, Winter [11, 14]: 0 | Plant response rating, Barley, Winter [11, 13]: 20

Cc1cc(C)nc(N2CCC(n3ccc(C(C)(C)C)n3)C2=O)c1 (stereo not shown) [Compound 138]
Plant response rating, Barnyardgrass [1]: 100 | Plant response rating, Ducksalad [2]: 90 | Plant response rating, Rice (rice (Oryza saliva)): 90 | Plant response rating, Flatsedge [3]: 90
